Laboratory results taken from DBAASP.
In brackets after ≈: the same amount, converted by molar mass. Several values for one entry are separate records, joined by “and”; a condition that tells them apart may be missing. Identical values can stand only once.

Legend:
Experiment in all cases: ≥ marks a high value that may be exact or a test limit, other limits are often not marked, values filed in µg/mL are converted to µM
[1] = test system: Pseudomonas aeruginosa ATCC 15692
[2] = test system: Staphylococcus aureus ATCC 29213
[3] = test system: Staphylococcus aureus 3518
[4] = test system: Pseudomonas aeruginosa 4007
[5] = test system: Escherichia coli ATCC 25922
[6] = test system: Pseudomonas aeruginosa 3543
[7] = test system: Bacillus subtilis KCTC 1998
[8] = test system: Listeria monocytogenes ATCC 3710
[9] = test system: Staphylococcus epidermidis ATCC 12228
[10] = test system: Escherichia coli CCARM 1238
[11] = test system: Proteus vulgaris KCTC 2433
[12] = test system: Candida parapsilosis CBS 604
[13] = test system: Saccharomyces cerevisiae SZMC 0644
[14] = test system: Candida albicans ATCC 10231
[15] = test system: Candida krusei CBS 573
[16] = test system: Enterobacter cloacae AB2010162
[17] = test system: Pseudomonas putida
[18] = test system: Staphylococcus aureus AB94004
[19] = test system: Klebsiella oxytoca AB2010143
[20] = test system: Escherichia coli DH5alpha
[21] = test system: Pseudomonas fluorescens
[22] = test system: Bacillus magaterium AB90008
[23] = test system: Micrococcus luteus AB2010179
[24] = test system: Salmonella enterica AB2010185
[25] = test system: Pseudomonas aeruginosa ATCC 27853
[26] = test system: Bacillus cereus ATCC 14579
[27] = test system: Fusarium solani
[28] = test system: Fusarium oxysporum
[29] = test system: Trichoderma asperellum
[30] = test system: Cryptococcus neoformans ATCC 28957
[31] = test system: Staphylococcus aureus ATCC 25923
[32] = test system: Xanthomonas campestris pv. citri
[33] = test system: Bacillus subtilis ATCC 23857
[34] = test system: Fusarium oxysporum f.sp. vasinfectum
[35] = test system: Ramulariopsis gossypii
[36] = test system: Pseudomonas syringae pv. tabaci
[37] = test system: Candida albicans ATCC 90028
[38] = test system: Pectobacterium carotovorum
[39] = test system: Staphylococcus aureus 215
[40] = test system: Acinetobacter baumannii AB5075
[41] = test system: Escherichia coli W3110
[42] = test system: Escherichia coli NDM
[43] = test system: Bacillus subtilis ATCC 6051
[44] = test system: Staphylococcus aureus MR
[45] = test system: Bacillus licheniformis ATCC 14580
[46] = test system: Staphylococcus aureus
[47] = test system: Bacillus amyloliquefaciens ATCC 23842
[48] = test system: Enterococcus faecium 5F-10
[49] = test system: Pseudomonas aeruginosa PA14
[50] = test system: Enterococcus faecium
[51] = test system: Enterococcus faecalis A4
[52] = test system: Enterococcus faecalis 1F-1

With `CC[C@H](C)[C@H](NC(=O)[C@H](Cc1ccccc1)NC(=O)[C@H](CCCN=C(N)N)NC(=O)[C@H](CC(C)C)NC(=O)[C@@H](N)Cc1ccccc1)C(=O)NCC(=O)N[C@@H](CO)C(=O)N[C@H](C(=O)N[C@@H](CCCCN)C(=O)N[C@@H](Cc1cnc[nH]1)C(=O)NCC(=O)N[C@@H](CCCCN)C(=O)NCC(=O)N[C@@H](Cc1cnc[nH]1)C(=O)N[C@@H](CC(C)C)C(=O)N[C@H](C(=O)N[C@@H](Cc1cnc[nH]1)C(=O)N[C@@H](Cc1cnc[nH]1)C(=O)N[C@H](C(=O)NCC(=O)N[C@H](C(=O)N[C@@H](C)C(=O)N[C@@H](CC(C)C)C(N)=O)C(C)C)[C@@H](C)CC)C(C)C)C(C)C` [FLRFIGSVKHGKGHLVHHIGVAL] the MIC [1] was no less than 32 µM, the MIC [2] was 8 µM (≈ 20.2 µg/mL) and the MIC [3] was 8 µM (≈ 20.2 µg/mL). The MIC [4] was 2 µM (≈ 5.04 µg/mL), the MIC [5] was 2 µM and 4 µM and the MIC [6] was 4 µM (≈ 10.1 µg/mL). For the same compound, the MIC [7] was 4 µM (≈ 10.1 µg/mL), the MIC [8] was 4 µM (≈ 10.1 µg/mL) and the MIC [9] was 4 µM and 8 µM. For the same compound, the MIC [10] was 2 µM (≈ 5.04 µg/mL) and the MIC [11] was 4 µM and 8 µM.

`CC[C@H](C)[C@H](N)C(=O)N[C@@H](C)C(=O)N[C@H](C(=O)N[C@@H](CO)C(=O)N1CCC[C@H]1C(=O)N[C@@H](Cc1ccc(O)cc1)C(=O)N[C@@H](Cc1ccc(O)cc1)C(=O)N[C@@H](C)C(=O)N[C@H]1CSSC[C@@H](C(=O)O)NC(=O)CNC(=O)[C@H](CO)NC(=O)CNC(=O)[C@H](CCCCN)NC(=O)[C@H](CCCCN)NC(=O)[C@H](Cc2cnc[nH]2)NC(=O)[C@H](CCCCN)NC(=O)[C@@H]2CSSC[C@H](NC(=O)[C@H](CC(N)=O)NC1=O)C(=O)N1CCC[C@H]1C(=O)N[C@@H](CC(N)=O)C(=O)N[C@@H](CC(N)=O)C(=O)N2)[C@@H](C)O` [IATSPYYACNCPNNCKHKKGSGC] gave an MIC [12] of 20.3 µM (≈ 49.9 µg/mL), an MIC [13] of 20.3 µM (≈ 49.9 µg/mL) and an MIC [14] of 20.3 µM (≈ 49.9 µg/mL). It also gave an MIC [15] of 20.3 µM (≈ 49.9 µg/mL).

In the case of `CC[C@H](C)[C@H](NC(=O)[C@H](CC(C)C)NC(=O)[C@H](CCCCN)NC(=O)[C@H](CC(C)C)NC(=O)[C@H](C)NC(=O)CNC(=O)[C@H](CCCCN)NC(=O)[C@H](C)NC(=O)[C@H](CC(C)C)NC(=O)[C@H](C)NC(=O)CNC(=O)[C@H](Cc1c[nH]c2ccccc12)NC(=O)[C@@H](N)Cc1ccccc1)C(=O)N1CCC[C@H]1C(=O)N[C@@H](CO)C(=O)N[C@@H](CC(C)C)C(=O)N[C@H](C(=O)N[C@@H](CO)C(=O)N[C@@H](CO)C(=O)N[C@@H](Cc1ccccc1)C(=O)N[C@H](C(N)=O)[C@@H](C)O)C(C)C` [FWGALAKGALKLIPSLVSSFT], the MIC [16] is reported as no less than 45 µM, the MIC [17] is reported as no less than 35 µM and the MIC [18] is reported as 6.9 µM (≈ 15.2 µg/mL). The MIC [19] was no less than 45 µM, the MIC [20] was no less than 40 µM and the MIC [21] was no less than 50.5 µM. It also gave an MIC [22] of 1.5 µM (≈ 3.31 µg/mL), an MIC [23] of 1.5 µM (≈ 3.31 µg/mL) and an MIC [24] of no less than 40 µM.

Compound `CSCC[C@H](NC(=O)[C@H](Cc1ccccc1)NC(=O)CNC(=O)[C@H](Cc1cnc[nH]1)NC(=O)[C@H](CC(C)C)NC(=O)[C@H](CO)NC(=O)CN)C(=O)N[C@@H](Cc1ccc(O)cc1)C(=O)N[C@@H](CCCCN)C(=O)N[C@@H](Cc1ccc(O)cc1)C(=O)N[C@@H](CC(C)C)C(=O)N[C@@H](CCCCN)C(=O)N[C@@H](CC(N)=O)C(=O)N[C@@H](CCSC)C(=O)N[C@H](C(=O)N[C@@H](CC(C)C)C(=O)N[C@@H](CC(N)=O)C(=O)N[C@@H](CC(C)C)C(=O)N[C@@H](Cc1ccccc1)C(N)=O)C(C)C` [GSLHGFMYKYLKNMVLNLF] has an MIC [25] of 26.7 µM (≈ 60.7 µg/mL), an MIC [26] of no less than 64 µM and an MIC [27] of no less than 32 µM. It also gave an MIC [28] of 16 µM (≈ 36.4 µg/mL), an MIC [29] of 6.67 µM (≈ 15.2 µg/mL) and an MIC [30] of 10.7 µM (≈ 24.3 µg/mL). For the same compound, the MIC [31] was 13.3 µM (≈ 30.3 µg/mL), the MIC [5] was 32 µM (≈ 72.8 µg/mL) and the MIC [32] was no less than 64 µM. For the same compound, the MIC [33] was 16 µM (≈ 36.4 µg/mL), the MIC [34] was 16 µM (≈ 36.4 µg/mL) and the MIC [35] was 4 µM (≈ 9.1 µg/mL). The MIC [36] was 16 µM (≈ 36.4 µg/mL), the MIC [37] was 4 µM (≈ 9.1 µg/mL) and the MIC [38] was no less than 128 µM.

Work on `CC[C@H](C)[C@H](NC(=O)[C@H](C)NC(=O)[C@@H](NC(=O)[C@@H]1CCCN1C(=O)[C@H](CCCN=C(N)N)NC(=O)[C@H](CCCCN)NC(=O)[C@H](CO)NC(=O)[C@@H](NC(=O)[C@H](CC(C)C)NC(=O)[C@@H](NC(=O)[C@H](CCCN=C(N)N)NC(=O)[C@@H](NC(=O)[C@H](CC(C)C)NC(=O)[C@@H](N)CCCN=C(N)N)C(C)C)[C@@H](C)CC)C(C)C)C(C)C)C(=O)N[C@@H](CCCCN)C(=O)N1CCC[C@H]1C(=O)N[C@@H](Cc1ccc(O)cc1)C(=O)N[C@@H](Cc1ccccc1)C(=O)N[C@@H](CCCN=C(N)N)C(=O)N[C@@H](CC(C)C)C(=O)O` [RLVRILVSKRPVAIKPYFRL] yielded an MIC [26] of 26.4 µM (≈ 64 µg/mL), an MIC [39] of 26.4 µM (≈ 64 µg/mL) and an MIC [40] of 2 µM (≈ 4.85 µg/mL). For the same compound, the MIC [41] was 4 µM (≈ 9.7 µg/mL), the MIC [42] was 8 µM (≈ 19.4 µg/mL) and the MIC [2] was greater than 26.4 µM. For the same compound, the MIC [43] was 26.4 µM (≈ 64 µg/mL), the MIC [44] was 26.4 µM (≈ 64 µg/mL) and the MIC [45] was 26.4 µM (≈ 64 µg/mL). It also gave an MIC [46] of 13.2 µM (≈ 32 µg/mL), an MIC [47] of 26.4 µM (≈ 64 µg/mL) and an MIC [48] of 0.825 µM (≈ 2 µg/mL). It also gave an MIC [49] of 8 µM (≈ 19.4 µg/mL), an MIC [50] of 1.65 µM (≈ 4 µg/mL) and an MIC [51] of 1.65 µM (≈ 4 µg/mL). It also gave an MIC [52] of 1.65 µM (≈ 4 µg/mL).
